Data reported in patent US9732046B2, “Substituted 1,2,4-triazines as tubulin inhibitors” (YM Biosciences Australia Pty Ltd., priority 2003, dated 2017).

How the values were obtained:
[1] = tested on: K562 (Chronic Myeloid Leukemia); experiment: Cellular growth inhibition assay (MTT), K562; type: cell-based; details: Homo sapiens, Table 1, 40 hr incubation
Procedure, shortened: (§1)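 Late-log-phase cells (K562 in RPMI, DU145 in DMED, PC3 in F12K; all 10% FBS, Glutamx, plus MEM non-essential amino acids for DU145 and PC3) were plated at 50000–200,000 cell/mL (1.1× final) with compounds added at 10× final. After 40 hr at 37° C, 5% CO2, MTT was added for 6 hours, then SDS/HCl lysis overnight and absorbance read at 590 nm.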

[2] = tested on: Tubulin (microtubule protein); experiment: Tubulin assay (turbidometric assay of microtubule assembly); type: biochemical; details: Table 1; 50 μM; absorbance at 340 nm, 37° C.
Protocol: Turbidometric assays of microtubule assembly were performed by incubating microtubule protein in cuvettes at 37° C. in a thermostatically controlled spectrophotometer measuring the change in absorbance at 340 nm over time. The microtubule protein was incubated with the each test compound at 0° C. and polymerisation was initiated by addition of 1 mM GTP, prior to heating to 37° C.

[3] = target: T1, TelJak2 (BaF3 TELJAK cells, TEL/Jak2 fusion) (Homo sapiens, UniProt O60674); experiment: Cellular growth inhibition assay (MTT), BaF3 TEL:JAK2 cell line; type: cell-based; details: Table 1, 40 hr incubation
T1 construct: The regions encompassing the kinase domain of JAK2 (nucleotides 2994-3914); expressed in transfected cells; host or cells: BaF3 cells bearing the pTET-off plasmid, transfected with pTELJAK2 (pTRE2 vector); the other entry of the earlier key: ETV6 (P41212, Transcription factor ETV6)

[4] = target: T2, TelJak3 (BaF3 TELJAK cells, TEL/JAK3 fusion) (Homo sapiens, UniProt P52333); experiment: Cellular growth inhibition assay (MTT), BaF3 TEL:JAK3 cell line; type: cell-based; details: Table 1, 40 hr incubation
T2 construct: For JAK3 Sa1 I/Not I cleaved kinase domain PCR product was ligated with BamH I/Sa1 I cleaved TELproduct; expressed in transfected cells; host or cells: BaF3 cells bearing the pTET-off plasmid, transfected with pTELJAK3 (pTRE2 vector); the other entry of the earlier key: ETV6 (P41212, Transcription factor ETV6)

[5] = tested on: PC3 (Prostate Cancer); experiment: Cellular growth inhibition assay (MTT), PC3; type: cell-based; details: Table 1, 40 hr incubation
Procedure, shortened: as §1

[6] = tested on: DU145 (Prostate Cancer); experiment: Cellular growth inhibition assay (MTT), DU145; type: cell-based; details: Homo sapiens, DU-145, Table 1, 40 hr incubation
Procedure, shortened: as §1

T2 sequence (P52333 with tags, fused parts or gaps): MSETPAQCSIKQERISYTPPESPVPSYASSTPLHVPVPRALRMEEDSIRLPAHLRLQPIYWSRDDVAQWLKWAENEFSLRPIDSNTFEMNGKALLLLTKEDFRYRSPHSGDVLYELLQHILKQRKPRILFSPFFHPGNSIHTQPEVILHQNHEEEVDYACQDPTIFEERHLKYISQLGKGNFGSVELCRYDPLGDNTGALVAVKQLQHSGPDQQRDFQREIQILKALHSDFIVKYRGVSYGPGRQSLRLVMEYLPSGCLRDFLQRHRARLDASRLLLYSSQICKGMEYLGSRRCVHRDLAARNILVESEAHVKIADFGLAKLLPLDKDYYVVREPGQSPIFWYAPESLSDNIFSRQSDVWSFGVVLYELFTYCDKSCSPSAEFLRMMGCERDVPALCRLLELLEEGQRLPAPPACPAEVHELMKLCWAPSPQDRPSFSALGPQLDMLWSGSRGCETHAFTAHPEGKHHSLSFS
T1 sequence (O60674 with tags, fused parts or gaps): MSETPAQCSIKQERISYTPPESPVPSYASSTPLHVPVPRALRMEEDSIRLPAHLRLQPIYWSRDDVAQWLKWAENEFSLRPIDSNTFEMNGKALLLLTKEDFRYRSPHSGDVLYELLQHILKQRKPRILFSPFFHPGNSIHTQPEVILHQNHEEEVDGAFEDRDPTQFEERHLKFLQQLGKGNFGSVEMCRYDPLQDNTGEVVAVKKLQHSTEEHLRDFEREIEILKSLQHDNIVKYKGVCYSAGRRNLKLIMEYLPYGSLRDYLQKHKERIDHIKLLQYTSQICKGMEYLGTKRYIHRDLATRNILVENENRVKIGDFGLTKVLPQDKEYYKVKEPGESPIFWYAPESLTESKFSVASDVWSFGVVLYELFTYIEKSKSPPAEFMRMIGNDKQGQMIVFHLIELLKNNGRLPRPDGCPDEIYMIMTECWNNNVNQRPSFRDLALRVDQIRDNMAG

SMILES	inhibition at 20 µM [1] [%]	Tubulin inhibition of tubulin polymerisation [2]	inhibition at 20 µM [3] [%]	inhibition at 20 µM [4] [%]	inhibition at 20 µM [5] [%]	inhibition at 20 µM [6] [%]
CCCC(Nc1cncc(-c2ccc(NC(=O)NCC)c(C)c2)n1)c1ccccn1 (stereo not drawn)	> 50	+ (compounds which inhibited tubulin polymerisation by greater than 50% at 50 μM)	> 50	> 50	> 50	> 50
CCCC(Nc1cncc(-c2ccc(CN)c(OC)c2)n1)c1cccnc1 (stereo not drawn)	> 50	+ (compounds which inhibited tubulin polymerisation by greater than 50% at 50 μM)	> 50	> 50	> 50	> 50
CCNC(=O)Nc1ccc(-c2cncc(N[C@@H](COC)c3ccccc3)n2)cc1OC	> 50	+ (compounds which inhibited tubulin polymerisation by greater than 50% at 50 μM)	> 50	> 50	> 50	> 50
COc1cc(-c2nccc(N[C@@H](C)c3ccccc3)n2)ccc1O	> 50	+ (compounds which inhibited tubulin polymerisation by greater than 50% at 50 μM)	> 50	> 50	> 50	> 50
CCCC(Nc1cncc(-c2ccc(OCCCCN3CCCCC3)c(OC)c2)n1)c1ccccc1 (stereo not drawn)	> 50	+ (compounds which inhibited tubulin polymerisation by greater than 50% at 50 μM)	> 50	> 50	> 50	> 50
CCCC(Nc1cncc(-c2ccc(OCCCO)c(OC)c2)n1)c1ccccc1 (stereo not drawn)	> 50	+ (compounds which inhibited tubulin polymerisation by greater than 50% at 50 μM)	> 50	> 50	> 50	> 50
CCCC(Nc1cncc(-c2ccc(NC(=O)NCCN(C)C)c(OC)c2)n1)c1cccnc1 (stereo not drawn)	> 50	+ (compounds which inhibited tubulin polymerisation by greater than 50% at 50 μM)	> 50	> 50	> 50	> 50
CCC[C@H](Nc1ccnc(-c2ccc(NC(=O)NCC)c(OC)c2)n1)c1cccnc1	> 50	+ (compounds which inhibited tubulin polymerisation by greater than 50% at 50 μM)	> 50	> 50	> 50	> 50
CCCC(Nc1cncc(-c2ccc(NC(=O)NCC)c(CC)c2)n1)c1cccnc1 (stereo not drawn)	> 50	+ (compounds which inhibited tubulin polymerisation by greater than 50% at 50 μM)	> 50	> 50	> 50	> 50
CCCC(Nc1nc(-c2ccc(NC(=O)NCC)c(OC)c2)cnc1C)c1ccccc1 (stereo not drawn)	> 50	+ (compounds which inhibited tubulin polymerisation by greater than 50% at 50 μM)	> 50	> 50	> 50	> 50
CCCC(Nc1cncc(-c2ccc(CO)cc2)n1)c1ccccc1 (stereo not drawn)	> 50	+ (compounds which inhibited tubulin polymerisation by greater than 50% at 50 μM)	> 50	> 50	> 50	> 50
CCCC(Nc1cncc(-c2ccc(CN3CCCC3)cc2)n1)c1ccccc1 (stereo not drawn)	> 50	+ (compounds which inhibited tubulin polymerisation by greater than 50% at 50 μM)	> 50	> 50	> 50	> 50
CCC[C@H](Nc1nc(-c2ccc(O)c(OC)c2)ncc1C)c1cccnc1	> 50	+ (compounds which inhibited tubulin polymerisation by greater than 50% at 50 μM)	> 50	> 50	> 50	> 50
CCNC(=O)Nc1ccc(-c2cncc(N[C@@H](COCC)c3ccccc3)n2)cc1OC	> 50	+ (compounds which inhibited tubulin polymerisation by greater than 50% at 50 μM)	> 50	> 50	> 50	> 50
CCNC(=O)Nc1ccc(-c2cncc(N[C@@H](CC)c3cccnc3)n2)cc1OC	> 50	+ (compounds which inhibited tubulin polymerisation by greater than 50% at 50 μM)	> 50	> 50	> 50	> 50
CCC[C@H](Nc1nc(-c2ccc(NC(=O)NCC)c(OC)c2)ncc1C)c1cccnc1	> 50	+ (compounds which inhibited tubulin polymerisation by greater than 50% at 50 μM)	> 50	> 50	> 50	> 50
CCCC(Nc1cncc(-c2ccc(OCCCN3CCCC3)c(OC)c2)n1)c1ccccc1 (stereo not drawn)	> 50	+ (compounds which inhibited tubulin polymerisation by greater than 50% at 50 μM)	> 50	> 50	> 50	> 50
CCCC(Nc1cncc(-c2ccc(OCCCn3ccnc3)c(OC)c2)n1)c1ccccc1 (stereo not drawn)	> 50	+ (compounds which inhibited tubulin polymerisation by greater than 50% at 50 μM)	> 50	> 50	> 50	> 50
CCC[C@H](Nc1cncc(-c2ccc(NC(=O)NCC)c(OC)c2)n1)c1cccnc1	> 50	+ (compounds which inhibited tubulin polymerisation by greater than 50% at 50 μM)	> 50	> 50	> 50	> 50
CCC[C@H](Nc1cncc(-c2ccc(NC(=O)NCC)c(OC)c2)n1)c1ccccn1	> 50	+ (compounds which inhibited tubulin polymerisation by greater than 50% at 50 μM)	> 50	> 50	> 50	> 50
CC[C@H](Nc1nc(-c2ccc(O)c(OC)c2)ncc1C)c1cccnc1	> 50	+ (compounds which inhibited tubulin polymerisation by greater than 50% at 50 μM)	> 50	> 50	> 50	> 50
CCCC(Nc1cncc(-c2ccc(NC(=O)NCC)c(C)c2)n1)c1cnccc1C (stereo not drawn)	> 50	+ (compounds which inhibited tubulin polymerisation by greater than 50% at 50 μM)	> 50	> 50	> 50	> 50
CCCC(Nc1cncc(-c2ccc(NC(=O)NCC)c(OC)c2)n1)c1cccnc1 (stereo not drawn)	> 50	+ (compounds which inhibited tubulin polymerisation by greater than 50% at 50 μM)	> 50	> 50	> 50	> 50
CCCC(Nc1cncc(-c2ccc(NC(=O)NCC)c(OC)c2)n1)c1cccc(F)c1 (stereo not drawn)	> 50	+ (compounds which inhibited tubulin polymerisation by greater than 50% at 50 μM)	> 50	> 50	> 50	> 50
